Data reported in patent US10597388B2, “Pyridazinone herbicides” (FMC CORPORATION, priority 2014, dated 2020).

Columns and labels:
Test in all cases: Test C greenhouse herbicide test, pre- and postemergence
Type in all cases: in vivo
[1] = tested on: barnyardgrass (Echinochloa crus-galli)
In short: (§1)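 Greenhouse pots; pre-em on seeded loam:sand blend, post-em on 2–18 cm plants (1–4 leaf) in sphagnum peat/vermiculite medium. Formulation: non-phytotoxic solvent + surfactant. Read-out: visual % control (0–100) vs controls at 13–15 d.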

[2] = tested on: nutsedge, yellow (yellow nutsedge, Cyperus esculentus)
In short: as §1

[3] = tested on: velvetleaf (Abutilon theophrasti)
In short: as §1

[4] = tested on: corn (Zea mays)
In short: as §1

[5] = tested on: oilseed rape (Brassica napus)
In short: as §1

[6] = tested on: crabgrass, large (large crabgrass, Digitaria sanguinalis)
In short: as §1

[7] = tested on: soybean (Glycine max)
In short: as §1

[8] = tested on: ragweed (common ragweed, Ambrosia elatior)
In short: as §1

[9] = tested on: galium (catchweed bedstraw, Galium aparine)
In short: as §1

[10] = tested on: lambsquarters (Chenopodium album)
In short: as §1

[11] = tested on: blackgrass (Alopecurus myosuroides)
In short: as §1

[12] = tested on: foxtail, giant (giant foxtail, Setaria faberii)
In short: as §1

[13] = tested on: pigweed (Amaranthus retroflexus)
In short: as §1

[14] = tested on: wheat (winter wheat, Triticum aestivum)
In short: as §1

[15] = tested on: ryegrass, Italian (Italian ryegrass, Lolium multiflorum)
In short: as §1

[16] = Postemergence, 31 g ai/ha, scale 0 to 100 (0 no effect, 100 complete control)
[17] = Postemergence, 125 g ai/ha, scale 0 to 100, 0 is no effect, 100 is complete control
[18] = Postemergence, 250 g ai/ha, scale 0 to 100, 0 no effect, 100 complete control, 13 to 15 d
[19] = Preemergence, 31 g ai/ha, scale 0 to 100, 0 is no effect, 100 is complete control
[20] = Preemergence, 62 g ai/ha, scale 0 to 100, 0 is no effect, 100 is complete control
[21] = Preemergence, 125 g ai/ha, scale 0 to 100, 0 is no effect, 100 is complete control
[22] = Preemergence, 250 g ai/ha, scale 0 to 100, 0 no effect, 100 complete control
[23] = postemergence, 62 g ai/ha, scale 0 to 100, 0 no effect, 100 complete control
[24] = Postemergence, 62 g ai/ha, 0 to 100 scale (0 no effect, 100 complete control)

Cc1nn(C)c(=O)c(-c2c(C)sc3ccc(C(F)(F)F)cc23)c1O [Compound 121]
55: Plant response rating, Barnyardgrass [1, 21] | Plant response rating, Oilseed Rape [5, 18] | Plant response rating, Foxtail, Giant [12, 20]
50: Nutsedge, Yellow plant response rating [2, 22] | Plant response rating, Blackgrass [11, 18]
75: Plant response rating, Nutsedge, Yellow [2, 18] | Plant response rating, Velvetleaf [3, 17] | Plant response rating, Velvetleaf [3, 20] | Plant response rating, Ragweed [8, 16] | Plant response rating, Pigweed [13, 16] | Plant response rating, Ryegrass, Italian [15, 19]
100: Galium plant response rating [9, 22] | Plant response rating, Lambsquarters [10, 18] | Lambsquarters plant response rating [10, 22] | Plant response rating, Pigweed [13, 19] | Pigweed plant response rating [13, 22] | Ryegrass, Italian plant response rating [15, 22]
45: Plant response rating, Nutsedge, Yellow [2, 16] | Plant response rating, Blackgrass [11, 20] | Plant response rating, Blackgrass [11, 21]
90: Plant response rating, Galium [9, 16] | Plant response rating, Galium [9, 19] | Plant response rating, Galium [9, 20] | Plant response rating, Lambsquarters [10, 16] | Plant response rating, Foxtail, Giant [12, 21] | Plant response rating, Pigweed [13, 17] | Plant response rating, Pigweed [13, 21] | Plant response rating, Ryegrass, Italian [15, 17] | Plant response rating, Ryegrass, Italian [15, 18] | Plant response rating, Ryegrass, Italian [15, 20]
35: Crabgrass, Large plant response rating [6, 22] | Plant response rating, Ragweed [8, 19]
98: Plant response rating, Ragweed [8, 18] | Plant response rating, Ragweed [8, 21] | Ragweed plant response rating [8, 22] | Plant response rating, Galium [9, 21] | Plant response rating, Lambsquarters [10, 17] | Plant response rating, Lambsquarters [10, 21] | Plant response rating, Pigweed [13, 18] | Plant response rating, Pigweed [13, 20]
40: Plant response rating, Crabgrass, Large [6, 18]
10: Plant response rating, Barnyardgrass [1, 20] | Plant response rating, Nutsedge, Yellow [2, 19] | Plant response rating, Velvetleaf [3, 16] | Plant response rating, Crabgrass, Large [6, 16] | Plant response rating, Crabgrass, Large [6, 20] | Plant response rating, Crabgrass, Large [6, 21] | Plant response rating, Blackgrass [11, 19] | Plant response rating, Wheat [14, 21]
15: Plant response rating, Blackgrass [11, 17] | Blackgrass plant response rating [11, 23] | Wheat plant response rating [14, 22]
85: Plant response rating, Nutsedge, Yellow [2, 17] | Plant response rating, Velvetleaf [3, 21] | Plant response rating, Oilseed Rape [5, 17] | Plant response rating, Oilseed Rape [5, 20] | Oilseed Rape plant response rating [5, 22] | Plant response rating, Foxtail, Giant [12, 18] | Plant response rating, Ryegrass, Italian [15, 16]
30: Plant response rating, Barnyardgrass [1, 18] | Plant response rating, Oilseed Rape [5, 21]
5: Plant response rating, Barnyardgrass [1, 19] | Plant response rating, Corn [4, 17] | Plant response rating, Corn [4, 18] | Corn plant response rating [4, 22] | Corn plant response rating [4, 23] | Crabgrass, Large plant response rating [6, 23] | Plant response rating, Wheat [14, 16]
0: Plant response rating, Corn [4, 16] | Plant response rating, Corn [4, 19] | Plant response rating, Corn [4, 20] | Plant response rating, Corn [4, 21] | Plant response rating, Oilseed Rape [5, 19] | Plant response rating, Crabgrass, Large [6, 19] | Plant response rating, Soybean [7, 16] | Plant response rating, Soybean [7, 17] | Plant response rating, Soybean [7, 18] | Plant response rating, Soybean [7, 19] | Plant response rating, Soybean [7, 20] | Plant response rating, Soybean [7, 21] | Soybean plant response rating [7, 22] | Plant response rating, Blackgrass [11, 16] | Plant response rating, Wheat [14, 18] | Plant response rating, Wheat [14, 19] | Plant response rating, Wheat [14, 20]
95: Velvetleaf plant response rating [3, 22] | Plant response rating, Ragweed [8, 17] | Plant response rating, Ragweed [8, 20] | Plant response rating, Galium [9, 17] | Plant response rating, Galium [9, 18] | Foxtail, Giant plant response rating [12, 22] | Plant response rating, Ryegrass, Italian [15, 21]
70: Plant response rating, Oilseed Rape [5, 16] | Plant response rating, Foxtail, Giant [12, 17]
20: Plant response rating, Barnyardgrass [1, 16] | Barnyardgrass plant response rating [1, 23] | Plant response rating, Nutsedge, Yellow [2, 21] | Plant response rating, Crabgrass, Large [6, 17] | Plant response rating, Foxtail, Giant [12, 16] | Plant response rating, Foxtail, Giant [12, 19]
25: Plant response rating, Barnyardgrass [1, 17] | Plant response rating, Nutsedge, Yellow [2, 20] | Plant response rating, Wheat [14, 17]
80: Plant response rating, Velvetleaf [3, 18] | Plant response rating, Lambsquarters [10, 20]
60: Barnyardgrass plant response rating [1, 22] | Plant response rating, Velvetleaf [3, 19] | Plant response rating, Lambsquarters [10, 19] | Blackgrass plant response rating [11, 22]

Cc1nn(C)c(=O)c(-c2cccc3ccc(Br)cc23)c1O [Compound 126]
98: Plant response rating, Velvetleaf [3, 17] | Plant response rating, Galium [9, 17] | Plant response rating, Galium [9, 18]
35: Plant response rating, Barnyardgrass [1, 17] | Plant response rating, Nutsedge, Yellow [2, 16] | Plant response rating, Soybean [7, 18]
25: Plant response rating, Barnyardgrass [1, 16] | Plant response rating, Corn [4, 18] | Plant response rating, Foxtail, Giant [12, 18]
95: Plant response rating, Velvetleaf [3, 18] | Plant response rating, Ragweed [8, 17] | Plant response rating, Ragweed [8, 18] | Galium plant response rating [9, 24] | Lambsquarters plant response rating [10, 24] | Plant response rating, Lambsquarters [10, 17] | Plant response rating, Lambsquarters [10, 18] | Plant response rating, Pigweed [13, 17] | Plant response rating, Pigweed [13, 18]
80: Oilseed Rape plant response rating [5, 24] | Plant response rating, Lambsquarters [10, 16] | Plant response rating, Ryegrass, Italian [15, 16]
15: Foxtail, Giant plant response rating [12, 24] | Plant response rating, Foxtail, Giant [12, 17]
70: Plant response rating, Nutsedge, Yellow [2, 17]
50: Plant response rating, Barnyardgrass [1, 18]
90: Ragweed plant response rating [8, 24] | Plant response rating, Galium [9, 16] | Pigweed plant response rating [13, 24] | Plant response rating, Ryegrass, Italian [15, 17] | Plant response rating, Ryegrass, Italian [15, 18]
0: Plant response rating, Wheat [14, 16] | Wheat plant response rating [14, 24] | Plant response rating, Wheat [14, 17]
5: Plant response rating, Soybean [7, 16] | Plant response rating, Blackgrass [11, 16] | Blackgrass plant response rating [11, 24] | Plant response rating, Foxtail, Giant [12, 16] | Plant response rating, Wheat [14, 18]
60: Nutsedge, Yellow plant response rating [2, 24] | Plant response rating, Oilseed Rape [5, 16] | Plant response rating, Oilseed Rape [5, 17]
20: Plant response rating, Corn [4, 17] | Crabgrass, Large plant response rating [6, 24] | Plant response rating, Soybean [7, 17]
85: Plant response rating, Nutsedge, Yellow [2, 18] | Velvetleaf plant response rating [3, 24] | Plant response rating, Oilseed Rape [5, 18] | Plant response rating, Ragweed [8, 16] | Plant response rating, Pigweed [13, 16] | Ryegrass, Italian plant response rating [15, 24]
10: Plant response rating, Corn [4, 16] | Corn plant response rating [4, 24] | Plant response rating, Crabgrass, Large [6, 16] | Soybean plant response rating [7, 24] | Plant response rating, Blackgrass [11, 17]
40: Plant response rating, Blackgrass [11, 18]
30: Barnyardgrass plant response rating [1, 24] | Plant response rating, Velvetleaf [3, 16] | Plant response rating, Crabgrass, Large [6, 17] | Plant response rating, Crabgrass, Large [6, 18]
